Data as given in patent US20200113852A1, “METHODS OF PATIENT SELECTION AND TREATING TRXR- OR PRDX-OVEREXPRESSED CANCERS” (TRIACT THERAPEUTICS, INC., priority 2017, published 2020).
Where two headings read alike, the source gives them in different places.

Legend:
HCT116 cells [1] = assay: ROS production and video-microscopy (H2DCF); type: cell-based, human; conditions: HCT116 loaded with H2DCF, 100 μM
Method: HCT116 cells pretreated or not for 20h with 1 mM BSO were loaded with 5 μM 2′,7′ dichloroflurescein diacetate (H2DCF). […] H2DCF fluorescence was excited with a LED light source (490 nm) and emitted light was collected at 520-550 nm. For video, H2DCF-loaded cells were washed with HBSS and kept for measurement in 2 μM H2DCF in HBSS.
For quantification the MetaMorph® software was used. ROIs were traced on representative cells and integrated fluorescence intensities were estimated. Values correspond to the average intensities of the ROIs and are expressed as the ratio F/FO, where F is the averaged intensity recorded at a given time and FO corresponds to an averaged intensity recorded on images captured before adding the compounds.

MDA-MB-453 cells = assay: Iniparib metabolites release, XLC-MS/MS of incubation media; type: in vitro ADME, human; parameters: unit not given beside the values
Method: (§1) Online solid phase extraction (SPE) was performed using the fully automated Spark Holland Symbiosis™ (Emmen, The Netherlands) in eXtraction Liquid Chromatography (XLC) mode. The Symbiosis™ has previously been described in detail (18). HySphere™ C18 HD 7 μm SPE cartridges were used (Spark Holland). Each cartridge was initially conditioned with 2 ml methanol+0.5% formic acid (FA) and then equilibrated with 2 ml water+0.5% FA, both at flow-rates of 4 ml/min. Sample (25 μl) was aspirated and loaded onto the cartridge with 1 ml water+0.5% FA at a flow-rate of 1 ml/min. […] After elution, the right clamp was washed successively with 2 ml water+0.5% FA, 2 ml methanol+0.5% FA and 2 ml water+0.5% FA at 4 ml/min. […] The mobile phase composition was returned to starting conditions over 1 min and maintained during 6 min for column equilibration. The total run time was 27 min. Mass spectrometry was performed using the Thermo® TSQ Quantum Discovery Max in electrospray positive ionization mode (Thermo, US) with the following parameters: capillary voltage=4.0 kV, capillary temperature=300° C., sheath gas pressure=40, auxiliary gas pressure=5.
(§2) All values are expressed as means±SEM of three independent experiments. ND., non detectable.

HCT116 cells [2] = assay: as above; type: in vitro ADME, human; parameters: unit not given beside the values
Method: as §1, §2

MDA-MB-231 cells = assay: ROS production (CellROXOrange); type: cell-based, human; conditions: GSH-depleted MDA-MB-231, 100 μM, 4 h
[3] = tested on: metastatic triple negative breast cancer; assay: Phase 2 and Phase 3 mTNBC trials, 15-gene expression signature analysis (PFS, OS, ORR); type: in vivo, human
Excerpt: Formalin-fixed, paraffin-embedded (FFPE) archival samples from biopsy or surgery at original diagnosis of breast cancer were profiled on the exon-based Affymetrix Hugene1.0ST microarrays using an RNA extraction protocol adapted to the short fragment lengths resulting from RNA degradation in FFPE samples. It was considered that a corpus of n=210 patients for whom clinical outcome data was available in the form of PFS time and associated censoring statuses.
The raw gene expression data from profiling of an initial n=240 FFPE preserved samples, in the form of individual Affymetrix CEL files, was processed using […] estimation. Quality control based on average array brightness excluded 30 outlier scans, and the n=210 remaining profiles were then normalized to each other using quantile normalization. Affymetrix probesets were mapped to genes, in a manner where multiple probesets mapping into the same gene were resolved by assigning the highest intensity to the corresponding gene, this procedure reducing the set of 33,297 probe sets to 20,756 mapped genes. The data was then log 2-transformed, and standardized by mean-subtraction and division by the standard deviation across all 210 samples, for each gene separately. Finally, the data matrix was subsetted to the intersection of the oxidative response set of 102 genes with the set of genes represented on the Hugene1.0ST arrays, resulting in profiles for p=82 genes across all n=210 samples.
A multivariate Cox model using supervised principal components was used to model progression free survival times regressed on gene expression data. […]
In Eq.(1) the variables: x1, l=1, . . . , K, denote projections onto the first K principal components of the data matrix of gene expression vectors, after preliminary reduction to a subset of mtop genes out of the original set of 82, where mtop is a variable parameter, 1≤mtop≤82. For a given mtop, the subset is determined by univariate feature selection (generating a Cox model for each gene independently and selecting the mtop genes with the smallest interaction-term P-values). […]

[4] = target: T1, human recombinant glutathione S-transferase pi (GSTP1) (Homo sapiens, UniProt P09211); assay: In vitro Iniparib-glutathione conjugation; type: biochemical; conditions: 30 μM, 1 mM GSH
T1 construct: purchased Acris
T1 sequence (P09211 whole entry): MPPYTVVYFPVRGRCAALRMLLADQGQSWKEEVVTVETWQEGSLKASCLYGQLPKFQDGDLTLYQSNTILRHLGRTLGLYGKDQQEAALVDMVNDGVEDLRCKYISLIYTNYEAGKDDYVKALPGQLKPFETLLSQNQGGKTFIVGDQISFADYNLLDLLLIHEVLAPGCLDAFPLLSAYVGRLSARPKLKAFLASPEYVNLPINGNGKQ
Method: as §1

[5] = Phase I clinical trial GBM, pharmacokinetics; type: in vivo, human; conditions: human, geometric mean±SD, plasma, read-out: Cmax
Excerpt: No cytochrome P450-inducing anticonvulsants. However, Gliadel was permitted.
Dosing is IV 2×/week continuous.

NC(=O)c1ccc(I)c([N+](=O)[O-])c1 [Iniparib, 4-iodo-3-nitrobenzamide]
ROS production (HCT116 cells [1]): induced an increase in ROS production | Iniparib and metabolites in incubation media (MDA-MB-453 cells; MDA-MB-453 w BSO, 1 h after 100 μM Iniparib): 91.4 ± 5.1 | Iniparib and metabolites in incubation media (MDA-MB-453 cells; MDA-MB-453 w BSO, 5 h after 100 μM Iniparib): 88.9 ± 10.2 | Iniparib and metabolites in incubation media (MDA-MB-453 cells; MDA-MB-453 w BSO, 24 h after 100 μM Iniparib): 74.2 ± 10.8 | Iniparib and metabolites in incubation media (MDA-MB-453 cells; MDA-MB-453 w/o BSO, 1 h after 100 μM Iniparib): 87.1 ± 1.3 | Iniparib and metabolites in incubation media (MDA-MB-453 cells; MDA-MB-453 w/o BSO, 5 h after 100 μM Iniparib): 64.0 ± 8.8 | Iniparib and metabolites in incubation media (MDA-MB-453 cells; MDA-MB-453 w/o BSO, 24 h after 100 μM Iniparib): 12.2 ± 4.3 | Iniparib and metabolites in incubation media (HCT116 cells [2]; HCT116 w BSO, 1 h after 100 μM Iniparib): 87.6 ± 3.5 | Iniparib and metabolites in incubation media (HCT116 cells [2]; HCT116 w BSO, 5 h after 100 μM Iniparib): 84.5 ± 6.7 | Iniparib and metabolites in incubation media (HCT116 cells [2]; HCT116 w BSO, 24 h after 100 μM Iniparib): 72.9 ± 7.4 | Iniparib and metabolites in incubation media (HCT116 cells [2]; HCT116 w/o BSO, 1 h after 100 μM Iniparib): 59.2 ± 0.6 | Iniparib and metabolites in incubation media (HCT116 cells [2]; HCT116 w/o BSO, 5 h after 100 μM Iniparib): 8.9 ± 0.4 | ROS (MDA-MB-231 cells): accumulation of ROS | median progression-free survival ([3]; biomarker-selected (sensitive) population n=53): 5.9 months | objective response rate (responders) ([3]; resistant group): 34% | objective response rate (responders) ([3]; sensitive group n=53): 48% | reaction with GSH ([4]; absence of GSTP1): did not react | conversion of Iniparib to Iniparib-GS ([4]; recombinant GSTP1 added): complete conversion | Cmax ([5]; 5.1 mg/kg IV 2×/week): 642 ± 315 ng/mL | Cmax ([5]; 6.1 mg/kg IV 2×/week): 928 ± 397 ng/mL | Cmax ([5]; 6.8 mg/kg IV 2×/week): 1020 ng/mL | Cmax ([5]; 8.0 mg/kg IV 2×/week): 3690 ng/mL | Cmax ([5]; 8.6 mg/kg IV 2×/week): 1520 ng/mL | Cmax ([5]; 9.5 mg/kg IV 2×/week): 2140 ng/mL
